Source: article PMC5706069 (2017)

Assays:
[1] = target: T1, human MOR (Homo sapiens, UniProt P35372); assay: Competition binding assay, [3H]DAMGO, CHO-hMOR cell membranes; settings: for Ki: read-out: opioid receptor binding, Ki, affinity MOR, CHO-hMOR membranes, [3H]DAMGO, mean ± SEM, at least three experiments
[2] = target: human DOR (Homo sapiens, UniProt P41143); assay: Competition binding assay, [3H]diprenorphine, CHO-hDOR cell membranes; settings: for Ki: read-out: opioid receptor binding, Ki, affinity DOR, CHO-hDOR membranes, [3H]diprenorphine, mean ± SEM, at least three experiments; for selectivity DOR/MOR: ratio of Ki values
[3] = target: human KOR (Homo sapiens, UniProt P41145); assay: Competition binding assay, [3H]HS665, CHO-hKOR cell membranes; settings: for selectivity KOR/MOR: ratio of Ki values; for Ki: read-out: opioid receptor binding, Ki, affinity KOR, CHO-hKOR membranes, [3H]HS665, mean ± SEM, at least three experiments
[4] = target: T1, human MOR; assay: [35S]GTPγS binding assay using CHO-hMOR cell membranes; type: biochemical; settings: for Emax: read-out: functional activity [35S]GTPγS MOR % stim; for EC50: read-out: functional activity [35S]GTPγS MOR EC50, mean ± SEM
[5] = test system: acute thermal nociception; assay: Hot-plate assay in mice after sc administration; type: in vivo; settings: Mus musculus, 0.5 h, read-out: antinociceptive activity hot-plate assay ED50 (95% CI)
[6] = test system: MOR; settings: 14-methoxy group introduced into 1; ref 6a, 6b; cited from earlier work
[7] = test system: antinociception; settings: cited from earlier work
[8] = test system: gastrointestinal motility; settings: ref 6b; cited from earlier work

SMILES | increase in MOR affinity, 3a vs 3 ([1]; human MOR, Ki ratio) | Ki [1] [nM] | higher MOR/DOR selectivity ratio than 3 ([2]; 3a vs 3) | Ki [2] [nM] | higher MOR/KOR selectivity ratio than 3 ([3]; 3a vs 3) [fold] | selectivity KOR/MOR [3] | Ki [3] [nM] | increase in the EC50 of 3a compared to 3 ([4]; [35S]GTPγS, human MOR) [fold] | Emax [4] [%] | EC50 ([4]; CHO-hMOR membranes) [nM] | ED50 [5] [mg/kg] | decrease in affinity to the DOR, 1a vs 1 ([2]; human DOR, Ki ratio) [fold] | selectivity DOR/MOR [2] | increase in MOR affinity vs oxymorphone (1) [6] [fold] | increase in antinociceptive potency vs oxymorphone (1) ([7]; ref 6a, 6b) [fold] | increased antinociceptive potency compared to 2 ([7]; ref 6b) [fold] | inhibition of gastrointestinal motility [8] | less constipating than 2 [8] [fold] | less constipating than morphine [8] [fold] | % stim of the reference full agonist DAMGO in [35S]GTPγS binding ([4]; CHO-hMOR membranes, DAMGO's own stimulation, the reference for efficacies) [%]
CN1CC[C@]23c4c5ccc(O)c4O[C@H]2CCC[C@@]3(OCc2ccccc2)[C@H]1C5 [Compound 3a, 14β-Benzyloxy-4,5α-epoxy-3-hydroxy-17-methylmorphinan] | up to 9 fold | 0.048 ± 0.011 | about 9 fold | 0.89 ± 0.29 | ~6 | 18 | 0.85 ± 0.05 | ~2.5 | 103 ± 8 | 0.13 ± 0.03 | 0.00241 |  |  |  |  |  |  |  |  | 
CN1CC[C@]23c4c5ccc(O)c4O[C@H]2CCC[C@@]3(O)[C@H]1C5 [Compound 1a, 3,14-Dihydroxy-4,5α-epoxy-17-methylmorphinan] |  | 1.65 ± 0.5 |  | 201 ± 80 |  | 13 | 21.6 ± 3.9 |  | 104 ± 7 | 8.99 ± 2.19 | 0.383 | ~3 | 122 |  |  |  |  |  |  | 
CO[C@@]12CCC(=O)[C@]3(C)Oc4c(O)ccc5c4[C@@]31CCN(C)[C@@H]2C5 [Compound 4, 14-methoxymetopon] |  |  |  | 19.8 ± 1.3 |  | 60 | 15.1 ± 0.9 |  | 99.2 ± 2.8 | 3.28 ± 0.81 | 0.0271 |  | 79 |  |  |  |  |  |  | 
CO[C@@]12CCC(=O)[C@@H]3Oc4c(O)ccc5c4[C@@]31CCN(C)[C@@H]2C5 [Compound 2, 14-O-methyloxymorphone] |  | 0.32 ± 0.08 |  | 8.8 ± 0.35 |  | 32 | 10.1 ± 3.1 |  | 96.4 ± 5 | 1.45 ± 0.32 | 0.0142 |  | 28 | ~9 | 40 |  |  |  |  | 
CO[C@@]12CCC[C@]3(C)Oc4c(O)ccc5c4[C@@]31CCN(C)[C@@H]2C5 [Compound 4a, 5β,17-Dimethyl-4,5α-epoxy-3-hydroxy-14β-methoxymorphinan] |  | 0.34 ± 0.08 |  | 12.9 ± 1.6 |  |  | 7.92 ± 4.47 |  |  | 2.95 ± 0.54 | 0.0251 |  |  |  |  |  |  |  |  | 
CO[C@@]12CCC[C@@H]3Oc4c(O)ccc5c4[C@@]31CCN(C)[C@@H]2C5 [Compound 2a, 4,5α-Epoxy-3-hydroxy-14β-methoxy-17-methylmorphinan] |  | 0.24 ± 0.08 |  | 8.64 ± 2.25 |  | 17 | 3.99 ± 0.63 |  | 105 ± 6 | 1.37 ± 0.26 | 0.0173 |  | 36 |  |  |  |  |  |  | 
CN1CC[C@]23c4c5ccc(O)c4O[C@H]2C(=O)CC[C@@]3(O)[C@H]1C5 [Compound 1, oxymorphone, reference compound] |  |  |  |  |  |  |  |  |  |  | 0.382 |  |  |  |  |  |  |  |  | 
CN1CC[C@]23c4c5ccc(O)c4O[C@H]2C(=O)CC[C@@]3(OCc2ccccc2)[C@H]1C5 [Compound 3, 14-O-benzyloxymorphone] |  | 0.45 ± 0.1 |  | 1.05 ± 0.42 |  | 2.8 | 1.27 ± 0.24 |  | 101 ± 5 | 0.32 ± 0.16 | 0.00238 |  | 2.3 |  |  | 5 | negligible | 7 | 2.5 | 
C[C@@H](NC(=O)[C@@H](N)Cc1ccc(O)cc1)C(=O)NCC(=O)N(C)[C@@H](Cc1ccccc1)C(=O)NCCO [DAMGO, [D-Ala^2,Me-Phe^4,Gly-ol^5]enkephalin, reference compound] |  |  |  |  |  |  |  |  |  |  |  |  |  |  |  |  |  |  |  | 221 ± 13
